How the values were obtained:
[1] = test system: castration-resistant prostate cancer (CRPC) with bone metastases; experiment: Phase 2 trial (NCT00940225) case studies of CRPC patients with bone metastases treated with compound 1; assay type: in vivo, human
From the text: All patients provided informed consent before study screening.

Human CRPC ARCaPM cells = experiment: ARCaPM in vivo efficacy study (intratibial xenografts); parameters: species or system nude mice
Procedure: Micro-CT-based quantification (Scanco 40 instrument) of 5 tibiae per group with 2 measurements each were used. ([…]) indicates vehicle tibia lacking detectable tumor in the section evaluated by histology. […] Bioquant® Image Analysis software was used for the histomorphometry of H&E-stained sections. Tumor (8A) and bone area (8B) were measured in the evaluated sections by tracing their outline within an area of 1×1 mm^2 (total tissue area) near the center of the growth plate. Percentages relative to the total tissue area were calculated. […] Bioquant® Image Analysis software was used for the histomorphometry of consecutive H&E- and TRAP-stained sections. (9A) Based on TRAP stain, OC numbers were counted along the border of the trabecular bone within the same tissue area used to assess tumor and bone area (FIG. 8). The ratio of OCs per bone perimeter (OC/mm) was calculated. (9B) OBs were counted along the trabecular bone surface in the same area on the H&E-stained sections and the number of OBs per bone perimeter (0 B/mm) was calculated. ([…]) indicates vehicle-treated mice without detectable tumor in the corresponding tumor area analysis (FIG. 8A). (A) indicates compound 1-treated mice with detectable tumor in the corresponding tumor area analysis (FIG. 8A).

[2] = test system: proteins related to the VEGF pathway (VEGF, NRP-1, HIF1α); experiment: IHC and single quantum-dot labeling of ARCaPM tumors in tibia sections, VEGF pathway proteins; assay type: in vivo, nude mice; settings: 10 mg/kg or 30 mg/kg, 7 weeks, vs vehicle
[3] = test system: CD34+ cells derived from human bone marrow; experiment: in vitro osteoclast (OC) differentiation assay; assay type: cell-based; settings: day 7
mature OCs = experiment: in vitro osteoclast (OC) activity assay (bone resorption by mature OCs); assay type: cell-based, human; settings: day 10
Mouse KS482 cells [4] = experiment: in vitro osteoblast (OB) differentiation assay; assay type: cell-based; settings: day 8
Mouse KS482 cells [5] = experiment: in vitro osteoblast (OB) bone-forming activity assay; assay type: cell-based
oral bioavailability = settings: in vivo
xenograft tumor models = experiment: xenograft tumor models; settings: in vivo
[6] = phase 1 clinical study, tolerability
[7] = test system: pancreatic neuroendocrine tumor; experiment: murine pancreatic neuroendocrine tumor model; settings: mouse, in vivo
[8] = test system: endothelial cells and tumor cells; experiment: apoptosis of endothelial cells and tumor cells
[9] = 10 mg/kg or 30 mg/kg, 7 weeks, compared to vehicle
[10] = 10 mg/kg or 30 mg/kg, 7 weeks, relative to vehicle

Structure (SMILES): COc1cc2nccc(Oc3ccc(NC(=O)C4(C(=O)Nc5ccc(F)cc5)CC4)cc3)c2cc1OC [Compound 1, N-(4-{[6,7-bis(methyloxy)quinolin-4-yl]oxy}phenyl)-N′-(4-fluorophenyl)cyclopropane-1,1-dicarboxamide]
- Hemoglobin (best response, change) ([1]; Patient 1, 100 mg dose): +1.4 g/dL
- Pain (best response) ([1]; Patient 1, 100 mg dose): Improvement
- Tumor response (best response) ([1]; Patient 1, 100 mg dose): −41%
- tALP (best response, change) ([1]; Patient 1, 100 mg dose): −77%
- increase in hemoglobin compared with baseline ([1]; Patient 1, Week 2): 1.4 g/dL
- CT scan response category ([1]; Patient 1, Week 6): partial response (PR)
- CT scan, decrease in measurable target lesions ([1]; Patient 1, Week 6): 33%
- bone scan, radiotracer uptake by bone metastases ([1]; Patient 1, Week 6): dramatic decrease in radiotracer uptake
- bone lesions on bone scan ([1]; Patient 1, Week 12): near complete resolution of bone lesions
- decrease in target lesions ([1]; Patient 1, Week 12, stable through Week 18): 44%
- adverse event leading to withdrawal ([1]; Patient 1, Week 18): Grade 3 diarrhea
- PSA level ([1]; Patient 1, Week 18 (430 ng/mL at baseline)): 93.5 ng/mL
- serum tALP level ([1]; Patient 1, Week 18 (689 U/L at baseline)): 159 U/L
- bone pain ([1]; Patient 1, four weeks after start): significant reduction in bone pain
- Bone scan (best response) ([1]; Patient 2, 100 mg dose): Improvement
- Hemoglobin (best response, change) ([1]; Patient 2, 100 mg dose): +1.8 g/dL
- Pain (best response) ([1]; Patient 2, 100 mg dose): Pain-free
- Tumor response (best response) ([1]; Patient 2, 100 mg dose): −20%
- tALP (best response, change) ([1]; Patient 2, 100 mg dose): −6%
- bone pain ([1]; Patient 2, Week 4): reduction in bone pain
- CT scan, decrease in target lesions ([1]; Patient 2, Week 6): 13%
- bone scan, radiotracer uptake by bone lesions ([1]; Patient 2, Week 6): slight flair in radiotracer uptake
- bone scan, radiotracer uptake ([1]; Patient 2, Week 12): substantial reduction of radiotracer uptake
- decrease in measurable disease ([1]; Patient 2, Week 12): 20%
- increase in hemoglobin compared with baseline ([1]; Patient 2, Week 12): 1.8 g/dL
- Hemoglobin (best response, change) ([1]; Patient 3, 100 mg dose): +2.2 g/dL
- PSA (best response, change) ([1]; Patient 3, 100 mg dose): −57%
- Pain (best response) ([1]; Patient 3, 100 mg dose): Pain-free
- Tumor response (best response) ([1]; Patient 3, 100 mg dose): −51%
- tALP (best response, change) ([1]; Patient 3, 100 mg dose): −77%
- increase in hemoglobin compared with baseline ([1]; Patient 3, Week 2): 2.2 g/dL
- CT scan, decrease in measurable target lesions ([1]; Patient 3, Week 6): 43%
- bone scan, radiotracer uptake ([1]; Patient 3, Week 6): dramatic reduction in radiotracer uptake
- bone lesions on bone scan ([1]; Patient 3, Week 12): complete resolution of bone lesions
- decrease in measurable disease ([1]; Patient 3, Week 12): 51%
- PSA level ([1]; Patient 3, Week 18 (2.4 ng/mL at screening)): 1.2 ng/mL
- serum tALP level ([1]; Patient 3, Week 18 (869 U/L at baseline)): 197 U/L
- pain ([1]; Patient 3, after three weeks): complete resolution of pain
- osteoblasts (OBs) along the trabecular bone, tibia sections (Human CRPC ARCaPM cells; [9]): increased OBs
- osteoclasts (OCs) along the trabecular bone, tibia sections (Human CRPC ARCaPM cells; [9]): no change in OCs
- bone mineral density, micro-CT (Human CRPC ARCaPM cells; [10]): preserves
- bone volume/tissue volume (BV/TV), micro-CT (Human CRPC ARCaPM cells; [10]): preserves
- progression of CRPC ARCaPM tumor xenografts in bone (X-ray, micro-CT of tibiae) (Human CRPC ARCaPM cells; 30 mg/kg, 7 weeks of treatment, vs vehicle): blocks progression
- progression of CRPC ARCaPM tumor xenografts in bone (H&E stain of tibia sections) (Human CRPC ARCaPM cells; 7 weeks of treatment, vs vehicle): blocks progression
- IHC staining of proteins related to the VEGF pathway (VEGF, NRP-1, HIF1α) in ARCaPM tumors [2]: decreased IHC staining
- OC differentiation (secreted TRACP 5b levels) [3]: inhibits in vitro osteoclast (OC) differentiation in a dose-dependent manner
- ability of mature OCs to resorb bone (secreted CTX normalized to TRACP 5b) (mature OCs): does not affect
- OB differentiation (cellular ALP activity) (Mouse KS482 cells [4]): biphasic effects
- OB bone forming activity (organic and inorganic bone matrix) (Mouse KS482 cells [5]): biphasic effects
- oral bioavailability (oral bioavailability): orally bioavailable
- tumor growth in xenograft tumor models (xenograft tumor models): causes tumor regression
- most commonly observed adverse events [6]: fatigue, diarrhea, anorexia, rash, and palmar-plantar erythrodysesthesia
- tolerability [6]: generally well-tolerated
- overall survival [7]: substantially improves
- tumor invasiveness and metastasis [7]: significantly reduces
- apoptosis of endothelial cells and tumor cells [8]: rapidly induces apoptosis
